Test results taken from PubChem BioAssay (NCI).
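Where inhibition never reached the appropriate level, the endpoint shown equals the highest concentration tested. Otherwise, values were interpolated linearly from a five-concentration, 48-hour dose response in 96-well plates. GI50 = concentration required for 50% inhibition of growth. TGI: concentration producing complete growth inhibition.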

Experiments:
Assay in all cases: inhibition of tumour cell growth, NCI panel, 48 h
[1] = tested on: A498 renal
[2] = tested on: A549 NSCLC
[3] = tested on: ACHN renal
[4] = tested on: BT-549 breast
[5] = tested on: CAKI-1 renal
[6] = tested on: DU-145 prostate
[7] = tested on: EKVX NSCLC
[8] = tested on: HCC-2998 colon
[9] = tested on: HCT-116 colon
[10] = tested on: HCT-15 colon
[11] = tested on: HL-60(TB) leukemia
[12] = tested on: HOP-62 NSCLC
[13] = tested on: HOP-92 NSCLC
[14] = tested on: HS 578T breast
[15] = tested on: HT29 colon
[16] = tested on: IGROV1 ovarian
[17] = tested on: K-562 leukemia
[18] = tested on: KM12 colon
[19] = tested on: LOX IMVI melanoma
[20] = tested on: MCF7 breast
[21] = tested on: MDA-MB-231 breast
[22] = tested on: MDA-MB-435
[23] = tested on: MOLT-4 leukemia
[24] = tested on: NCI-H23 lung
[25] = tested on: NCI/ADR-RES ovarian
[26] = tested on: OVCAR-3 ovarian
[27] = tested on: OVCAR-4 ovarian
[28] = tested on: OVCAR-5 ovarian
[29] = tested on: OVCAR-8 ovarian
[30] = tested on: PC-3 prostate
[31] = tested on: SF-295 CNS
[32] = tested on: SF-539 CNS
[33] = tested on: SK-MEL-5 melanoma
[34] = tested on: SK-OV-3 ovarian
[35] = tested on: SNB-19 CNS
[36] = tested on: SW-620 colon
[37] = tested on: TK-10 renal
[38] = tested on: U251 CNS
[39] = tested on: UACC-257 melanoma
[40] = tested on: UACC-62 melanoma
[41] = tested on: UO-31 renal
[42] = tested on: 786-0 renal
[43] = tested on: CCRF-CEM leukemia
[44] = tested on: COLO 205 colon

CCOC(=O)c1c(C)[nH]c(/C=C2\N=C(c3ccc[nH]3)C=C2OC)c1C
GI50 [1]: 1870 nM
TGI [1]: 5700 nM
GI50 [2]: 45.7 nM
TGI [2]: 1280 nM
GI50 [3]: 32.1 nM
TGI [3]: 1290 nM
GI50 [4]: 41 nM
TGI [4]: 1480 nM
GI50 [5]: 46.1 nM
TGI [5]: 795 nM
GI50 [6]: 37.2 nM
TGI [6]: 1600 nM
GI50 [7]: 469 nM
TGI [7]: 3810 nM
GI50 [8]: 49.7 nM
TGI [8]: 1180 nM
GI50 [9]: < 10.7 nM
GI50 [10]: < 10 nM
TGI [10]: 1070 nM
GI50 [11]: 23.2 nM
TGI [11]: 442 nM
GI50 [12]: 40.6 nM
TGI [12]: 1170 nM
GI50 [13]: 32.3 nM
TGI [13]: 79.2 nM
GI50 [14]: 57.7 nM
TGI [14]: 925 nM
GI50 [15]: < 10 nM
TGI [15]: 1190 nM
GI50 [16]: 30.5 nM
TGI [16]: 1090 nM
GI50 [17]: 50.4 nM
TGI [17]: 1530 nM
GI50 [18]: 15 nM
TGI [18]: 1320 nM
GI50 [19]: < 10 nM
TGI [19]: 16.8 nM
GI50 [20]: 46.9 nM
TGI [20]: 1300 nM
GI50 [21]: 26.3 nM
TGI [21]: 1320 nM
GI50 [22]: 18.6 nM
TGI [22]: 1150 nM
GI50 [23]: < 12 nM
TGI [23]: 3090 nM
GI50 [24]: 235 nM
TGI [24]: 2030 nM
GI50 [25]: 45.7 nM
TGI [25]: 3450 nM
GI50 [26]: 15.2 nM
TGI [26]: 299 nM
GI50 [27]: 135 nM
TGI [27]: 2810 nM
GI50 [28]: 40.4 nM
TGI [28]: 1510 nM
GI50 [29]: 35.8 nM
TGI [29]: 1610 nM
GI50 [30]: 44.2 nM
TGI [30]: 2450 nM
GI50 [31]: 105 nM
TGI [31]: 624 nM
GI50 [32]: 60.6 nM
TGI [32]: 1280 nM
GI50 [33]: 23.1 nM
TGI [33]: 69.8 nM
GI50 [34]: 413 nM
TGI [34]: 3710 nM
GI50 [35]: 735 nM
TGI [35]: > 42300 nM
GI50 [36]: < 10 nM
TGI [36]: 1330 nM
GI50 [37]: 30.7 nM
TGI [37]: 1750 nM
GI50 [38]: 52 nM
TGI [38]: 1590 nM
GI50 [39]: 40.2 nM
TGI [39]: 1460 nM
GI50 [40]: 30.9 nM
TGI [40]: 90.4 nM
GI50 [41]: 23.9 nM
TGI [41]: 58 nM

CCN(CC)Cc1cc(Nc2ccnc3cc(Cl)ccc23)cc(-c2ccc(Cl)cc2)c1O
GI50 [42]: 1840 nM
TGI [42]: > 100000 nM
GI50 [5]: 907 nM
TGI [5]: > 100000 nM
GI50 [43]: 999 nM
TGI [43]: > 100000 nM
GI50 [44]: 3050 nM
TGI [44]: > 100000 nM
GI50 [7]: 879 nM
TGI [7]: > 100000 nM
GI50 [10]: 577 nM
TGI [10]: > 100000 nM
GI50 [13]: 434 nM
TGI [13]: 3200 nM
GI50 [15]: 1880 nM
TGI [15]: > 100000 nM
GI50 [18]: 3080 nM
TGI [18]: > 100000 nM
GI50 [22]: 989 nM
TGI [22]: > 100000 nM
GI50 [23]: 485 nM
TGI [23]: > 100000 nM
GI50 [24]: 704 nM
TGI [24]: > 100000 nM
GI50 [30]: 771 nM
TGI [30]: > 100000 nM
GI50 [31]: 1390 nM
TGI [31]: > 100000 nM
GI50 [34]: 3890 nM
TGI [34]: > 100000 nM
GI50 [36]: 628 nM
TGI [36]: > 100000 nM
GI50 [39]: 1290 nM
TGI [39]: 4850 nM

COc1ccc2[nH]cc(/C=C3/C(=O)Nc4ccc(Cl)cc43)c2c1
GI50 [1]: > 100000 nM
TGI [1]: > 100000 nM
GI50 [43]: 5970 nM
TGI [43]: > 100000 nM
GI50 [11]: > 100000 nM
TGI [11]: > 100000 nM
GI50 [18]: 352 nM
TGI [18]: > 100000 nM
GI50 [23]: > 100000 nM
TGI [23]: > 100000 nM
GI50 [28]: > 100000 nM
TGI [28]: > 100000 nM
